These results are taken from PubChem BioAssay (NCI).

Structures are written as SMILES.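 Five compound concentrations were applied to cells in 96-well plates for 48 hours; endpoints were derived by simple linear interpolation of the resulting dose-response curve. Here, GI50 denotes the concentration required for 50% inhibition of growth. The concentration for full growth arrest is given as TGI.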

Test systems include HCT-116 colon; NCI-H522 lung; DLD-1 colon; SK-MEL-2 melanoma; HL-60(TB) leukemia; DMS 273 small cell lung; TK-10 renal; UACC-257 melanoma; MDA-MB-231 breast; MDA-MB-435; DU-145 prostate.
What all share (experiment): NCI tumour cell line growth inhibition, 48 h

For the compound `CSc1nc(Cl)c(Br)c(Sc2nc(N)nc3nc[nH]c23)n1`, the TGI in the test on HCT-116 colon is 12.4 µM; with NCI-H522 lung it was 3.45 µM; with DLD-1 colon, 24.4 µM; with SK-MEL-2 melanoma, 16.9 µM; in the test with HL-60(TB) leukemia, 13.3 µM; in the test on DMS 273 small cell lung, 15.6 µM. For the same compound, the values for the TGI in the test on TK-10 renal and in the test with UACC-257 melanoma were 20.9 µM and 30 µM, respectively.

Consider `N=C(c1ccc2ccccc2c1)c1ccccc1Cc1ccccc1`, for which the TGI with MDA-MB-231 breast was more than 100 µM; in the test on HCT-116 colon it was more than 100 µM; with MDA-MB-435 it was 80.7 µM; in the test with DU-145 prostate, 96.6 µM; in the test with SK-MEL-2 melanoma, 49.6 µM; in the test on HL-60(TB) leukemia, 55.1 µM. In addition, the TGI in the test with TK-10 renal and in the test with UACC-257 melanoma was more than 100 µM throughout.

With `O=C1c2ccccc2C(=O)c2c(Nc3ccc4c5c(cccc35)C(=O)c3ccccc3-4)cccc21`, the TGI with MDA-MB-231 breast, in the test on HCT-116 colon, with MDA-MB-435, with DU-145 prostate, with NCI-H522 lung and with SK-MEL-2 melanoma was more than 100 µM each time. Besides, the TGI in the test with TK-10 renal and in the test with UACC-257 melanoma was more than 100 µM in each case.

As for `CCOC(=O)C12CCC(=O)C=C1[C@@H](C)C(=O)CC2` (stereo partly drawn), the TGI in the test on HCT-116 colon, in the test with DLD-1 colon, with SK-MEL-2 melanoma, with HL-60(TB) leukemia, in the test with DMS 273 small cell lung and in the test with TK-10 renal was more than 100 µM in each case. Besides, the TGI in the test with UACC-257 melanoma was more than 100 µM.

For the compound `O=C(CNc1cccc([N+](=O)[O-])c1)Nn1c(-c2ccccc2)nc2ccccc2c1=O`, the TGI with MDA-MB-231 breast was found to be 2.9 µM; in the test with HCT-116 colon, 2.09 µM; with DU-145 prostate, 5.47 µM; in the test on HL-60(TB) leukemia it was 1.81 µM; in the test with TK-10 renal, 3.95 µM; in the test on UACC-257 melanoma it was 11.8 µM.

Regarding `CC(C)(C)N1C(C(=O)c2ccccc2)C1c1ccccc1` (stereo not drawn), the TGI in the test with NCI-H522 lung, in the test with DLD-1 colon, in the test on HL-60(TB) leukemia, in the test on DMS 273 small cell lung, in the test on TK-10 renal and in the test with UACC-257 melanoma was more than 100 µM in each case.

`N#CN=C(N)NC(=O)/C=C/C=C/c1ccc(Cl)cc1`: the TGI in the test with HCT-116 colon, in the test on NCI-H522 lung, with DLD-1 colon, in the test on SK-MEL-2 melanoma, in the test with HL-60(TB) leukemia and with DMS 273 small cell lung was more than 100 µM in each case. The TGI with TK-10 renal and with UACC-257 melanoma was more than 100 µM in each case.

As to `CC(C)(C)OC(=O)c1cnc(Cl)cn1`, the TGI is more than 100 µM in the test with MDA-MB-231 breast; more than 100 µM in the test on HCT-116 colon; more than 100 µM in the test on MDA-MB-435; more than 100 µM in the test with DU-145 prostate; 2.78 µM with NCI-H522 lung; 80.6 µM in the test with SK-MEL-2 melanoma. Moreover, the TGI with TK-10 renal and with UACC-257 melanoma was more than 100 µM throughout.

With `CC(C)c1cc(CN(C)C)c(O)c(C(C)(C)C)c1`, the TGI was more than 100 µM with MDA-MB-231 breast; more than 100 µM in the test on HCT-116 colon; more than 100 µM in the test with MDA-MB-435; more than 100 µM in the test on DU-145 prostate; 38.1 µM with NCI-H522 lung; 38.6 µM with SK-MEL-2 melanoma. Moreover, the TGI is 15.1 µM with HL-60(TB) leukemia, more than 100 µM with TK-10 renal and 29.2 µM with UACC-257 melanoma.

In the case of `O=c1ccc2nc(-c3ccccc3)nn(-c3ccccn3)c-2c1`, the GI50 with MDA-MB-231 breast was 9.87 µM; with HCT-116 colon, 3.33 µM; in the test with MDA-MB-435 it was 15.4 µM; with DU-145 prostate it was 15.5 µM; with NCI-H522 lung, 1.51 µM; in the test with SK-MEL-2 melanoma, 15 µM. The GI50 with HL-60(TB) leukemia is 1.34 µM; with TK-10 renal it was 1.71 µM; with UACC-257 melanoma, 3.66 µM. The TGI in the test on MDA-MB-231 breast came to 29.5 µM; in the test with HCT-116 colon it was 11.3 µM; with MDA-MB-435, 33.9 µM; in the test with DU-145 prostate it was 30.7 µM; in the test on NCI-H522 lung, 2.97 µM; with SK-MEL-2 melanoma, 41.9 µM. Also, the results for the TGI in the test on HL-60(TB) leukemia, in the test on TK-10 renal and in the test on UACC-257 melanoma were 4.33 µM, 3.14 µM and 14.6 µM, respectively.

Regarding `Nc1nc(N)c2c(n1)NC(=O)c1c(c3ccccc3n1Cc1ccc(Cl)cc1)C2`, the TGI with HCT-116 colon was 66.9 µM; with MDA-MB-435, 91.1 µM; in the test with DU-145 prostate, 29.3 µM; in the test with SK-MEL-2 melanoma it was more than 100 µM; in the test with HL-60(TB) leukemia, 39.4 µM; in the test on TK-10 renal it was 46.9 µM. In addition, in the test with UACC-257 melanoma, the TGI was more than 100 µM.

As to `Nc1c2c(=O)[nH]c(=O)c2c(N)c2c(=O)c3ccccc3c(=O)c12`, the TGI in the test on MDA-MB-231 breast is more than 29.5 µM; in the test on HCT-116 colon, more than 100 µM; in the test with MDA-MB-435 it was 2.46 µM; with DU-145 prostate, 3.95 µM; in the test on NCI-H522 lung, 13.5 µM; with SK-MEL-2 melanoma, 6.2 µM. Also, the figures for the TGI in the test on HL-60(TB) leukemia, in the test with TK-10 renal and in the test on UACC-257 melanoma were more than 100 µM, 40.7 µM and 3.17 µM, respectively.

Regarding `CC(=O)OC(C)C1C2=C(C(=O)CC1(C)O)C(=O)c1c(ccc(-c3ccc4c(c3O)C(=O)C3=C(C4=O)C(C(C)OC(C)=O)C(C)(O)CC3=O)c1O)C2=O` (stereo not drawn), the TGI with MDA-MB-231 breast was found to be 4.98 µM; with HCT-116 colon, 1.77 µM; in the test with MDA-MB-435 it was 4.19 µM; in the test with DU-145 prostate, 18.3 µM; in the test on NCI-H522 lung it was 4.25 µM; with DLD-1 colon, 2.43 µM. The TGI was 2.74 µM in the test on SK-MEL-2 melanoma; more than 100 µM in the test on HL-60(TB) leukemia; 3.05 µM in the test with DMS 273 small cell lung; 5.41 µM in the test on TK-10 renal; 3.48 µM with UACC-257 melanoma.

`C=CC[N+]12CN3CN(CN(C3)C1)C2`: the TGI in the test with MDA-MB-231 breast was 91.3 µM; in the test on HCT-116 colon, 58.2 µM; in the test on MDA-MB-435, 37.4 µM; in the test on DU-145 prostate it was 46.9 µM; in the test with NCI-H522 lung, 34.9 µM; in the test on SK-MEL-2 melanoma, more than 100 µM. In addition, the TGI was more than 100 µM in the test with HL-60(TB) leukemia, 45.4 µM in the test with TK-10 renal and 61.7 µM in the test with UACC-257 melanoma.

Turning to `COc1ccc(C[C@H](N)C(=O)NC2C(CO)OC(n3cnc4c(N(C)C)ncnc43)C2O)cc1` (stereo partly drawn), the TGI in the test on HCT-116 colon stood at 0.293 µM; in the test on SK-MEL-2 melanoma, 3.26 µM; in the test with HL-60(TB) leukemia, 0.442 µM; in the test on DMS 273 small cell lung it was 1.51 µM; in the test with UACC-257 melanoma, 1.67 µM.

Consider `COC(=O)Nc1nc2cc(OC)c(OC)cc2c(=O)[nH]1`, for which the TGI in the test on MDA-MB-231 breast was more than 100 µM; with HCT-116 colon, more than 100 µM; in the test with DU-145 prostate it was more than 100 µM; in the test with NCI-H522 lung it was 6.51 µM; in the test on SK-MEL-2 melanoma, more than 100 µM; in the test on HL-60(TB) leukemia it was more than 100 µM. In addition, the TGI with TK-10 renal and in the test on UACC-257 melanoma was more than 100 µM in each case.

On to `NC(=O)C(N)=O`, for which the TGI with HCT-116 colon, with NCI-H522 lung, in the test on DLD-1 colon, in the test on SK-MEL-2 melanoma, with HL-60(TB) leukemia and in the test on DMS 273 small cell lung was more than 100 µM each time. Also, the TGI with TK-10 renal and with UACC-257 melanoma was more than 100 µM throughout.
